The source of these data is USRE50528E1, “Compounds and compositions for modulating EGFR mutant kinase activities” (Yuhan Corporation, priority 2014, dated 2025).

One assay addresses T1, EGFR mutant L858R/T790M (Homo sapiens, UniProt P00533, L858R/T790M).
T1 construct: truncated human JAK3, EGFR mutants such as del E746-A750; purchased Carna Biosciences
Description: Kinase inhibition assay, EGFR L858R/T790M.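 Also: truncated human enzyme preincubated two hours with compound, then one hour with one millimolar ATP and ULight-PolyGT peptide, Europium-labeled antibody detection, IC50.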 The class given is biochemical. Conditions: read-out: EGFR mutants L858R/T790M.

The target of a further assay is T2, EGFR mutant T790M (Homo sapiens, UniProt P00533, T790M).
T2 construct: truncated human JAK3, EGFR mutants such as del E746-A750; purchased Carna Biosciences
Description: Kinase inhibition assay, EGFR mutant T790M.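 Also: truncated human EGFR mutant enzyme preincubated two hours with compound, then ATP plus ULight-PolyGT peptide for one hour, Europium-labeled antibody LANCE detection, IC50.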 To be noted: biochemical potency.

For assay [1], the target named is T3, EGFR mutant Del19 (E746-A750) (Homo sapiens, UniProt P00533, DEL746-750).
T3 construct: truncated human JAK3, EGFR mutants such as del E746-A750; purchased Carna Biosciences
Description: Kinase inhibition assay, EGFR del E746-A750.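 Also: truncated human EGFR mutant kinase, two-hour preincubation with compound, then one-hour reaction with ATP and ULight-PolyGT peptide, LANCE Europium-antibody phosphorylation readout, IC50.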 It counts as biochemical. To be noted: read-out: EGFR mutants Del19 (E746-A750).

The target in another assay is T4, EGFR mutant Del19/T790M (Homo sapiens, UniProt P00533, DEL746-750/T790M).
T4 construct: truncated human JAK3, EGFR mutants such as del E746-A750; purchased Carna Biosciences
Kind of assay: Kinase inhibition assay, EGFR del E746-A750/T790M. The class given is biochemical. Conditions: read-out: EGFR mutants Del19/T790M.

Another assay addresses T5, EGFR mutant L858R (Homo sapiens, UniProt P00533, L858R).
T5 construct: truncated human JAK3, EGFR mutants such as del E746-A750; purchased Carna Biosciences
Description: Kinase inhibition assay, EGFR L858R.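 Also: truncated human EGFR L858R kinase with compound preincubation, ULight-PolyGT peptide phosphorylation read by Europium-antibody Lance detection, IC50.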 It counts as biochemical. Conditions: read-out: EGFR mutants L858R.

The target of another assay is T6, SYK (Homo sapiens, UniProt P43405).
T6 construct: Purified human, full-length SYK, KDR; purchased Carna Biosciences
Description: Kinase inhibition assay, SYK.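 Also: purified full-length human SYK pre-incubated 30 min with compound, then ULight-TK peptide phosphorylation for 1 h, detected with Europium-labeled antibody in Lance buffer.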 The class given is biochemical. To be noted: biochemical potency.

A value given as a limit tells only on which side of the number the result lay.

T1 sequence (P00533 669-1210 T790M/L858R limits assumed): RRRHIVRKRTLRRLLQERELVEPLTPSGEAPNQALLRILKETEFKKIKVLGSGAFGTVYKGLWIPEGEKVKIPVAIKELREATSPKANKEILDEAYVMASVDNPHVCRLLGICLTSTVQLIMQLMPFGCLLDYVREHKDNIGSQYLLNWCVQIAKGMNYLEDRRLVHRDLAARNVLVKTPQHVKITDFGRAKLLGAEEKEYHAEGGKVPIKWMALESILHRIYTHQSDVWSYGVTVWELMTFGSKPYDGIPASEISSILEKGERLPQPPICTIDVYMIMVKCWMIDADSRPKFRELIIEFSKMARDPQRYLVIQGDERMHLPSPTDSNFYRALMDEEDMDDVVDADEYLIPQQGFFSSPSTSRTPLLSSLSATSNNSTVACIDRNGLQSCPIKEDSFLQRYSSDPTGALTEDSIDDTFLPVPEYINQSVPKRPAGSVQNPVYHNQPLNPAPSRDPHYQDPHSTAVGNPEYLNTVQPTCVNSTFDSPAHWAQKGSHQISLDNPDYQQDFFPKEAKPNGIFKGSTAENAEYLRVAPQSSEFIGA
T4 sequence (P00533 with tags, fused parts or gaps DEL746-750/T790M limits assumed): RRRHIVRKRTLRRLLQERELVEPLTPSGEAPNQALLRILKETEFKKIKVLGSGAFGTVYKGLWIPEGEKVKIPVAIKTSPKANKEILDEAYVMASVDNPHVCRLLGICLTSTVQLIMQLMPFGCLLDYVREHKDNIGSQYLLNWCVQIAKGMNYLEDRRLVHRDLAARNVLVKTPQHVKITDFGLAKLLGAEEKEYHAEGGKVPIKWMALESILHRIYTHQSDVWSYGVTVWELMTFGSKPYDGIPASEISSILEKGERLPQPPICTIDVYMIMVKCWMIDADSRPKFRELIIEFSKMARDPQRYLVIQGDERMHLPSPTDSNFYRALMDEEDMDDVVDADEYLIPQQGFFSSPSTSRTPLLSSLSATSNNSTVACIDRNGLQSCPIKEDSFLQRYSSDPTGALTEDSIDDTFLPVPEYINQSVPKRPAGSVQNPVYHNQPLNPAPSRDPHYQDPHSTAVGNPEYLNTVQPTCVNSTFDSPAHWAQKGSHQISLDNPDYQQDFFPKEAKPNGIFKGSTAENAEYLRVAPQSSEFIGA
T2 sequence (P00533 669-1210 T790M limits assumed): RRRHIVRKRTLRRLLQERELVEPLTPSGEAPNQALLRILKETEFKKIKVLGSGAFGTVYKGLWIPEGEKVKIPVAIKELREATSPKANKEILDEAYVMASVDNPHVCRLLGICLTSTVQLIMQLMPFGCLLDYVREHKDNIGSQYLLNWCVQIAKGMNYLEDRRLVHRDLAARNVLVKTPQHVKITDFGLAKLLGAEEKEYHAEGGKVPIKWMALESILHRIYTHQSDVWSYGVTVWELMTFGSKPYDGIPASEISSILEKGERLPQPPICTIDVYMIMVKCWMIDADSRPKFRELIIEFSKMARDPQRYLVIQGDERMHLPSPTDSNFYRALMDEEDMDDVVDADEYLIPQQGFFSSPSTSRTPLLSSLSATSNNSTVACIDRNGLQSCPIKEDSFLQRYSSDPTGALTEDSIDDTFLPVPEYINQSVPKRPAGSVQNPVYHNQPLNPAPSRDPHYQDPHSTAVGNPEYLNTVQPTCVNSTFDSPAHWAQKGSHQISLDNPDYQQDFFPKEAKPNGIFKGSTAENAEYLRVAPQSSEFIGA
T5 sequence (P00533 669-1210 L858R limits assumed): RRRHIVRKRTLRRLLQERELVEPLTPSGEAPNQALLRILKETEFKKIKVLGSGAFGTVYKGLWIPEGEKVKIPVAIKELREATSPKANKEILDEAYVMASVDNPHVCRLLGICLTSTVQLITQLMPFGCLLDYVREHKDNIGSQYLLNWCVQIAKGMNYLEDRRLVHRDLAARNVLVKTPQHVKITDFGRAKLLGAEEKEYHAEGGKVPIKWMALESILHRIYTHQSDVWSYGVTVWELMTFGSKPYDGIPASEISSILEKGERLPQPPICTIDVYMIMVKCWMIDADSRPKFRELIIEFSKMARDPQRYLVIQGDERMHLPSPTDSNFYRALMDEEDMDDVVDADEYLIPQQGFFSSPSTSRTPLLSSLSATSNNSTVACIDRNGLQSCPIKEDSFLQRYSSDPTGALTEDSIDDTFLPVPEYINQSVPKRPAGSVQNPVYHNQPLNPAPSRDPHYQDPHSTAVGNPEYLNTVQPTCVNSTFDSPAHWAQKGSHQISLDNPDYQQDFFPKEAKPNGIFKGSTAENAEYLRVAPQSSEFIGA
T3 sequence (P00533 with tags, fused parts or gaps DEL746-750 limits assumed): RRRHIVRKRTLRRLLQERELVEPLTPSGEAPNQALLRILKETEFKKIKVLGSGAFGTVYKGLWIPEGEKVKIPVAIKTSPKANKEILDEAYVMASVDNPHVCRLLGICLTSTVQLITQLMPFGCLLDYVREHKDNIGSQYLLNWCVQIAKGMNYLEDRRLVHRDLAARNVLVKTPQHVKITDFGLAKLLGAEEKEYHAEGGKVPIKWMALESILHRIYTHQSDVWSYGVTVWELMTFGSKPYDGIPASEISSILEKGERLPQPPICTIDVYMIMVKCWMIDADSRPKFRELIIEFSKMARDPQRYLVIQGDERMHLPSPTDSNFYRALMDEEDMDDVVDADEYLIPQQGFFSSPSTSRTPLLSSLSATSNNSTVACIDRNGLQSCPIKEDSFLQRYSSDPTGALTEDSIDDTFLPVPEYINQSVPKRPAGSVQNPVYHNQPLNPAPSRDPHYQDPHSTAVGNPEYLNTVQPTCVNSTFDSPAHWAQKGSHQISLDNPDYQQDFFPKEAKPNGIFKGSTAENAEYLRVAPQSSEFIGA

For `C=CC(=O)Nc1cc(Nc2ncc(C)c(-n3cc(CN4CCC4)c(C(C)C)n3)n2)c(OC)cc1N1CCOCC1` [Compound 125, N-(5-(4-(4-(azetidin-1-ylmethyl)-3-isopropyl-1H-pyrazol-1-yl)-5-methylpyrimidin-2-ylamino)-4-methoxy-2-morpholinophenyl)acrylamide], the IC50 (at EGFR mutant L858R/T790M; against EGFR mutant T790M; in assay [1]; on EGFR mutant Del19/T790M; at EGFR mutant L858R) was < 0.02 µM throughout.

Regarding `C=CC(=O)Nc1cc(Nc2nccc(-n3cc(CN(C)C)c(C(C)(C)C)n3)n2)c(OC)cc1N(CC)CCOC` [Compound 126, N-(5-(4-(3-tert-butyl-4-((dimethylamino)methyl)-1H-pyrazol-1-yl)pyrimidin-2-ylamino)-2-(ethyl(2-methoxyethyl)amino)-4-methoxyphenyl)acrylamide], the IC50 on EGFR mutant L858R/T790M is < 0.02 µM; at EGFR mutant T790M, 0.02 to 0.2 µM; in assay [1], < 0.02 µM; on EGFR mutant Del19/T790M, < 0.02 µM; at EGFR mutant L858R it was < 0.02 µM.

For the compound `C=CC(=O)Nc1cc(Nc2nccc(-n3cc(CN(C)C)c(-c4ccncc4)n3)n2)c(OC)cc1N1CCOCC1` [Compound 136, N-(5-(4-(4-((dimethylamino)methyl)-3-(pyridin-4-yl)-1H-pyrazol-1-yl)pyrimidin-2-ylamino)-4-methoxy-2-morpholinophenyl)acrylamide], the IC50 (on EGFR mutant L858R/T790M; on EGFR mutant T790M; in assay [1]; on EGFR mutant Del19/T790M; on EGFR mutant L858R) was < 0.02 µM in each case.

For the compound `C=CC(=O)Nc1cc(Nc2nccc(-n3cc(CN(C)C)c(-c4cc(C)ccc4C)n3)n2)c(OC)cc1N1CCOCC1` [Compound 89, N-(5-(4-(4-((dimethylamino)methyl)-3-(2,5-dimethylphenyl)-1H-pyrazol-1-yl)pyrimidin-2-ylamino)-4-methoxy-2-morpholinophenyl)acrylamide], the IC50 is < 0.02 µM on EGFR mutant L858R/T790M; 0.02 to 0.2 µM on EGFR mutant T790M; 0.02 to 0.2 µM in assay [1]; < 0.02 µM on EGFR mutant Del19/T790M; 0.02 to 0.2 µM at EGFR mutant L858R.

With `C=CC(=O)Nc1cc(Nc2nccc(-n3cc(CO)c(-c4ccccc4)n3)n2)c(OC)cc1N1CCOCC1` [Compound 91, N-(5-(4-(4-(hydroxymethyl)-3-phenyl-1H-pyrazol-1-yl)pyrimidin-2-ylamino)-4-methoxy-2-morpholinophenyl)acrylamide], the IC50 is 0.02 to 0.2 µM at EGFR mutant L858R/T790M; 0.201 to 1 µM against EGFR mutant T790M; < 0.02 µM in assay [1]; < 0.02 µM on EGFR mutant Del19/T790M; 0.02 to 0.2 µM at EGFR mutant L858R.

In the case of `C=CC(=O)Nc1cc(Nc2nccc(-n3nc(C)c(CN4CCC4)c3C)n2)c(OC)cc1N1CCOCC1` [Compound 70, N-(5-(4-(4-(azetidin-1-ylmethyl)-3,5-dimethyl-1H-pyrazol-1-yl)pyrimidin-2-ylamino)-4-methoxy-2-morpholinophenyl)acrylamide], the IC50 (at EGFR mutant L858R/T790M; in assay [1]; at EGFR mutant Del19/T790M; on EGFR mutant L858R) was 0.02 to 0.2 µM each time.

For `C=CC(=O)Nc1cc(Nc2nccc(-n3cc(CN(C)C)c(C(C)(C)C)n3)n2)c(OC)cc1N(C)C1COC1` [Compound 102, N-(5-(4-(3-tert-butyl-4-((dimethylamino)methyl)-1H-pyrazol-1-yl)pyrimidin-2-ylamino)-4-methoxy-2-(methyl(oxetan-3-yl)amino)phenyl)acrylamide], the IC50 on EGFR mutant L858R/T790M was < 0.02 µM; against EGFR mutant T790M, < 0.02 µM; in assay [1], < 0.02 µM; on EGFR mutant L858R, < 0.02 µM; against SYK it was > 1 µM.

For the compound `C=CC(=O)Nc1cc(Nc2ncc(C)c(-n3cc(CN4CCC4)cn3)n2)c(OC(C)C)cc1N1CCOCC1` [Compound 63, N-(5-(4-(4-(azetidin-1-ylmethyl)-1H-pyrazol-1-yl)-5-methylpyrimidin-2-ylamino)-4-isopropoxy-2-morpholinophenyl)acrylamide], the IC50 was 0.02 to 0.2 µM at EGFR mutant L858R/T790M; 0.02 to 0.2 µM against EGFR mutant T790M; 0.02 to 0.2 µM in assay [1]; 0.201 to 1 µM on EGFR mutant L858R; > 1 µM at SYK.
